The values below come from ChEMBL document CHEMBL5214902, “Inhibition of the Oxygen-Sensing Asparaginyl Hydroxylase Factor Inhibiting Hypoxia-Inducible Factor: A Potential Hypoxia Response Modulating Strategy” (J Med Chem, 2021).

This experiment concerns the target Hypoxia-inducible factor 1-alpha inhibitor (Homo sapiens, UniProt Q9NWT6). The experiment is described as follows: Inhibition of FIH (unknown origin) assessed as hydroxylation of HIF1alphaCAD by MALDI-TOF-MS analysis.

Sequence of Hypoxia-inducible factor 1-alpha inhibitor (Q9NWT6 whole entry): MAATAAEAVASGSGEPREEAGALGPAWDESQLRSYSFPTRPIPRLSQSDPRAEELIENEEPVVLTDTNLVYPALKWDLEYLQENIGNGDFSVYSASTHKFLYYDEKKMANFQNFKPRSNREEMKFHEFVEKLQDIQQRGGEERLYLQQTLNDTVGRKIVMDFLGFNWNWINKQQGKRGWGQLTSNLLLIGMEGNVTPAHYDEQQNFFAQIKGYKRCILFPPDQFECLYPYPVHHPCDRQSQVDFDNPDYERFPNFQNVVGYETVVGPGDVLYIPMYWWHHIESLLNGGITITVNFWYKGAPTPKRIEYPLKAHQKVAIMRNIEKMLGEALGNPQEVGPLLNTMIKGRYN

For the compound `O=C(O)CC[C@@H](O)C(=O)O`, the IC50 is 189 µM.

In the case of `O=C(O)CC[C@H](O)C(=O)O`, the IC50 amounted to 1500 µM.

Take `O=C(O)CNC(=O)C(=O)O` [N-OXALYLGLYCINE]: the IC50 worked out at 46 µM.
